In patent publication US20260297080A1, “BICYCLIC COMPOUNDS AS CDK INHIBITORS” (BeOne Medicines I GmbH, priority 2022, published 2026):

Legend:
CDK1/Cyclin B1 = CDK1/Cyclin B1 (Homo sapiens, UniProt P06493); assay: CDK1/Cyclin B1 Biochemical Assay (TR-FRET), 0.015 mM ATP; conditions: 0.15 μM Rb (Ser780)-biotin substrate, pH7.0, 60 min preincubation, 120 min reaction, room temperature
Procedure: (§1) CDK2/Cyclin E1 and CDK1/Cyclin B1 Biochemical Assays
(§2) Compounds disclosed herein were tested for inhibition of CDK2/Cyclin E1 or CDK1/Cyclin B1 kinase in an assay based on the time-resolved fluorescence-resonance energy transfer (TR-FRET) methodology. The assay was carried out in 384-well low volume black plates in a reaction mixture containing CDK2/Cyclin E1 or CDK1/Cyclin B1, 0.060 mM ATP for CDK2/Cyclin E1 or 0.015 mM ATP for CDK1/Cyclin B1, 0.15 μM Rb (Ser780)-biotin substrate and 0-10 μM compound in buffer containing 50 mM HEPES pH7.0, 0.02% NaN3, 0.01% BSA, 0.1 mM Orthovanadate, 50 mM MgCl2, 1 mM DTT and 0.005% Tween-20. The kinase was incubated with compound for 60 minutes at room temperature and the reaction was initiated by the addition of ATP and Rb (Ser780)-biotin substrate. After reaction at room temperature for 120 minutes, an equal volume of stop/detection solution was added according to the manufacture's instruction (Cisbio Bioassays). The stop/detection solution contained Streptavidin-XL665 and Anti-pRb (Ser780) mAb-Eu Cryptate in Detection buffer (Cisbio Bioassays). Plates were incubated at room temperature for 60 minutes, and the TR-FRET signals (ex337 nm, em665 nm/620 nm) were recorded on a PHERAstar FSX plate reader (BMG Labtech). The inhibition percentage of CDK2/Cyclin E1 or CDK1/Cyclin B1 kinase activity in presence of increasing concentrations of compounds was calculated based on the ratio of fluorescence at 665 nm to that at 620 nm. The IC50 for each compound was derived from fitting the data to the four-parameter logistic equation by Dotmatics.

CDK2/Cyclin E1 = CDK2/Cyclin E1 (Homo sapiens, UniProt P24941); assay: CDK2/Cyclin E1 Biochemical Assay (TR-FRET), 0.060 mM ATP; conditions: 0.15 μM Rb (Ser780)-biotin substrate, pH7.0, 60 min preincubation, 120 min reaction, room temperature
Procedure: as §1, §2

CDK1/Cyclin B1, sequence (P06493 whole entry): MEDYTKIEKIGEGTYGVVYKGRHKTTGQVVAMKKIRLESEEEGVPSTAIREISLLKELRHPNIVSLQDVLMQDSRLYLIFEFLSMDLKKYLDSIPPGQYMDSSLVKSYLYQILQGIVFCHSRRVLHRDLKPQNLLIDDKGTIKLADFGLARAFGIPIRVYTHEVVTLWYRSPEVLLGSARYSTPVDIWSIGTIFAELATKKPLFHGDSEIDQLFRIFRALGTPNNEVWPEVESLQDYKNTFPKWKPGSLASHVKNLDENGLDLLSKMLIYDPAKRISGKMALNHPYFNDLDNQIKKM
CDK1/Cyclin B1, sequence (P14635 whole entry partner): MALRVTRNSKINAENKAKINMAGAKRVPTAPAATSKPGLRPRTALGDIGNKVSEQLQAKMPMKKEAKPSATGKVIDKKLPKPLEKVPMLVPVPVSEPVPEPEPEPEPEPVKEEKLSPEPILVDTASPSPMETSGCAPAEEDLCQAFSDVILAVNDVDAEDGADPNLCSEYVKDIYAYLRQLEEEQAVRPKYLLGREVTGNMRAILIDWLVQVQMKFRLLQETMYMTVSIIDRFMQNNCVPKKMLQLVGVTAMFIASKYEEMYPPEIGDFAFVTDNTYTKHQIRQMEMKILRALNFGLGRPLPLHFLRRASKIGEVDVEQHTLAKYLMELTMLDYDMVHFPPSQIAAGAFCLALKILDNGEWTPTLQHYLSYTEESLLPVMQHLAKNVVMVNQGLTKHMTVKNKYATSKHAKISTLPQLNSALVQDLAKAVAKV

SMILES	IC50 (CDK1/Cyclin B1) [µM]	IC50 (CDK2/Cyclin E1) [µM]
CC(C)NC(=O)O[C@H]1CC[C@@H](c2cc(Nc3ccc4c(c3F)CN(C3CN(C)C3)S4(=O)=O)n[nH]2)C1 (relative stereo) [Example 91, cis-3-(3-((4-fluoro-2-(1-methylazetidin-3-yl)-1,1-dioxido-2,3-dihydrobenzo[d]isothiazol-5-yl)amino)-1H-pyrazol-5-yl)cyclopentyl isopropylcarbamate]	0.945	0.024
CC(C)NC(=O)O[C@H]1CC[C@@H](c2cc(Nc3ccc4c(c3)CS(=O)(=O)N4C3CC3)n[nH]2)C1 (relative stereo) [Example 203, cis-3-(3-((1-cyclopropyl-2,2-dioxido-1,3-dihydrobenzo[c]isothiazol-5-yl)amino)-1H-pyrazol-5-yl)cyclopentyl isopropylcarbamate]	0.041	0.0054
CC1(NC(=O)O[C@H]2C[C@@H](c3cc(Nc4cc5c(cc4F)S(=O)(=O)NC5)n[nH]3)C2)CC1 [Example 411, (1s,3s)-3-(3-((6-fluoro-1,1-dioxido-2,3-dihydrobenzo[d]isothiazol-5-yl)amino)-1H-pyrazol-5-yl)cyclobutyl(1-methylcyclopropyl)carbamate]	0.386	0.0094
CC1(C)CCN1C(=O)O[C@H]1CC[C@@H](c2cc(Nc3ccc4c(c3F)CNS4(=O)=O)n[nH]2)C1 (relative stereo) [Example 155, cis-3-(3-((4-fluoro-1,1-dioxido-2,3-dihydrobenzo[d]isothiazol-5-yl)amino)-1H-pyrazol-5-yl)cyclopentyl 2,2-dimethylazetidine-1-carboxylate]	0.013	0.0013
CC[C@H](C)NC(=O)O[C@H]1CC[C@@H](c2cc(Nc3ccc4c(c3)NS(=O)(=O)C4)n[nH]2)C1 (relative stereo) [Example 306, cis-3-(3-((2,2-dioxido-1,3-dihydrobenzo[c]isothiazol-6-yl)amino)-1H-pyrazol-5-yl)cyclopentyl((S)-sec-butyl)carbamate]	0.027	0.0028
Cc1cc(Nc2cc([C@@H]3CC[C@H](OC(=O)NC(C)C)C3)[nH]n2)cc2c1NS(=O)(=O)C2 (relative stereo) [Example 242, cis-3-(3-((7-methyl-2,2-dioxido-1,3-dihydrobenzo[c]isothiazol-5-yl)amino)-1H-pyrazol-5-yl)cyclopentyl isopropylcarbamate]	0.07	0.0051

Further lines, results first:

IC50 (CDK1/Cyclin B1) [µM]	IC50 (CDK2/Cyclin E1) [µM]	SMILES
0.045	0.0017	CC[C@H](C)NC(=O)O[C@@H]1CC[C@H](c2cc(Nc3ccc4c(c3F)CS(=O)(=O)N4)n[nH]2)C1 (single isomer, unassigned) [Example 383a]
0.158	0.0037	CC1(NC(=O)O[C@H]2CC[C@@H](c3cc(Nc4ccc5c(c4F)CNS5(=O)=O)n[nH]3)C2)CCOC1 (single isomer, unassigned) [Example 162d, cis-3-(3-((4-fluoro-1,1-dioxido-2,3-dihydrobenzo[d]isothiazol-5-yl)amino)-1H-pyrazol-5-yl)cyclopentyl(3-methyltetrahydrofuran-3-yl)carbamate]
1.22	0.012	CC(C)NC(=O)O[C@H]1CC[C@@H](c2cc(Nc3ccc4c(c3F)CN(CCO)S4(=O)=O)n[nH]2)C1 (single isomer, unassigned) [Example 125a, cis-3-(3-((4-fluoro-2-(2-hydroxyethyl)-1,1-dioxido-2,3-dihydrobenzo[d]isothiazol-5-yl)amino)-1H-pyrazol-5-yl)cyclopentyl isopropylcarbamate]
0.334	0.0053	CCCNC(=O)O[C@H]1CC[C@@H](c2cc(Nc3ccc4c(c3F)CS(=O)(=O)N4C)n[nH]2)C1 (single isomer, unassigned) [Example 256a, cis-3-(3-((4-fluoro-1-methyl-2,2-dioxido-1,3-dihydrobenzo[c]isothiazol-5-yl)amino)-1H-pyrazol-5-yl)cyclopentyl propylcarbamate]
